# What was measured:
# [1] = biological target: Tyrosine-protein kinase Lyn (Homo sapiens, UniProt P07948); assay: Inhibition of LYN at 1 uM incubated for 30 mins prior to substrate addition study done at apparent ATP Km for enzyme
# [2] = biological target: Serine/threonine-protein kinase Chk2 (Homo sapiens, UniProt O96017); details: 1 uM
# [3] = biological target: Aurora kinase A (Homo sapiens) (UniProt O14965); details: 1 uM
# [4] = biological target: Mitogen-activated protein kinase 3 (Homo sapiens) (UniProt P27361); assay: Inhibition of Erk1 at 1 uM incubated for 30 mins prior to substrate addition study done at apparent ATP Km for enzyme
# [5] = biological target: T1, Dual specificity protein kinase TTK (Homo sapiens, UniProt P33981); assay: Inhibition of MPS1 by caliper method
# T1 sequence (P33981 whole entry): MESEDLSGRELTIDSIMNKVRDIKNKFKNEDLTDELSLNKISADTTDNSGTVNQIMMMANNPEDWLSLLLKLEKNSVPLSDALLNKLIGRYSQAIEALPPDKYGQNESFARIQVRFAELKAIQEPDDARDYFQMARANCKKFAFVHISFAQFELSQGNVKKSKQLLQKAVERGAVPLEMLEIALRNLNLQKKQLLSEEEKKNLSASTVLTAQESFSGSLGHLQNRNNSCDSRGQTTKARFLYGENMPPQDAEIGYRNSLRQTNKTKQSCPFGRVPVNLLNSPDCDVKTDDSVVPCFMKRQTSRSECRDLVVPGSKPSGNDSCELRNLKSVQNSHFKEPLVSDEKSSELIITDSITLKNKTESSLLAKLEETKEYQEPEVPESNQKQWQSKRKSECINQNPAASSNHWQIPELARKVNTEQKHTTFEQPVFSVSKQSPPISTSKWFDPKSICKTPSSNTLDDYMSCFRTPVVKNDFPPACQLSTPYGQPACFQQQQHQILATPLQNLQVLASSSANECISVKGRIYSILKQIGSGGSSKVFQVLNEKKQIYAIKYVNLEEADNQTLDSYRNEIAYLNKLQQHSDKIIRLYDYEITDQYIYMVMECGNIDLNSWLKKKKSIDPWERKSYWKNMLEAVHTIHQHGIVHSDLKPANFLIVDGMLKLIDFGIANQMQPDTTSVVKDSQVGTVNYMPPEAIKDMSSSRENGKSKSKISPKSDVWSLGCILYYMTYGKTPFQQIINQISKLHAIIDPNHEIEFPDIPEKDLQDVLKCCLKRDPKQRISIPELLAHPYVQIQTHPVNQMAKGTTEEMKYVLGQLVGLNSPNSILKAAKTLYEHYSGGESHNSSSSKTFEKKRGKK
# [6] = biological target: MAP kinase-activated protein kinase 5 (Homo sapiens) (UniProt Q8IW41); assay: Inhibition of PRAK at 1 uM incubated for 30 mins prior to substrate addition study done at apparent ATP Km for enzyme
# [7] = biological target: T2, Serine/threonine-protein kinase Nek2 (Homo sapiens, UniProt P51955)
# T2 sequence (P51955 whole entry): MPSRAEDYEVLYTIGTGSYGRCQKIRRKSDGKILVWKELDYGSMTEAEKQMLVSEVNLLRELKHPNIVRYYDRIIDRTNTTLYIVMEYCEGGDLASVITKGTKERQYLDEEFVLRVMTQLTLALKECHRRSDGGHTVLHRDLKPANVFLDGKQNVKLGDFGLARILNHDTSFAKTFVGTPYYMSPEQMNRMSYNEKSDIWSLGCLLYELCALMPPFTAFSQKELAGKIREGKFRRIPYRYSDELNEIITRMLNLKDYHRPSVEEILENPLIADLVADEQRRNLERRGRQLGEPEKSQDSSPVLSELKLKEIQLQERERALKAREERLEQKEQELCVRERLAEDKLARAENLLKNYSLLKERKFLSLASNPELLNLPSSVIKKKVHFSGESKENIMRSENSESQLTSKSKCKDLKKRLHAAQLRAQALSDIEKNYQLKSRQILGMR
# Description: Inhibition of Nek2-mediated C-Nap1 phosphorylation in human U2OS cells after 3 hrs by immunofluorescence microscopy
# [8] = biological target: Glycogen synthase kinase-3 beta (Homo sapiens, UniProt P49841); assay: Inhibition of GSK3beta at 1 uM incubated for 30 mins prior to substrate addition study done at apparent ATP Km for enzyme
# [9] = biological target: Serine/threonine-protein kinase Chk1 (Homo sapiens) (UniProt O14757); assay: Inhibition of CHK1 at 1 uM incubated for 30 mins prior to substrate addition study done at apparent ATP Km for enzyme
# [10] = biological target: RAC-beta serine/threonine-protein kinase (Homo sapiens) (UniProt P31751); assay: Inhibition of AKT2 at 1 uM incubated for 30 mins prior to substrate addition study done at apparent ATP Km for enzyme
# [11] = Inhibition of CH1D incubated for 30 mins prior to substrate addition study done at apparent ATP Km for enzyme
# [12] = biological target: Proto-oncogene tyrosine-protein kinase Src (Homo sapiens, UniProt P12931); assay: Inhibition of SRC incubated for 30 mins prior to substrate addition study done at apparent ATP Km for enzyme
# [13] = biological target: Tyrosine-protein kinase ABL1 (Homo sapiens, UniProt P00519); assay: Inhibition of ABL at 1 uM incubated for 30 mins prior to substrate addition study done at apparent ATP Km for enzyme
# [14] = biological target: Hepatocyte growth factor receptor (Homo sapiens, UniProt P08581); assay: Inhibition of MET incubated for 30 mins prior to substrate addition study done at apparent ATP Km for enzyme
# Hepatocyte growth factor receptor, sequence (P08581 whole entry): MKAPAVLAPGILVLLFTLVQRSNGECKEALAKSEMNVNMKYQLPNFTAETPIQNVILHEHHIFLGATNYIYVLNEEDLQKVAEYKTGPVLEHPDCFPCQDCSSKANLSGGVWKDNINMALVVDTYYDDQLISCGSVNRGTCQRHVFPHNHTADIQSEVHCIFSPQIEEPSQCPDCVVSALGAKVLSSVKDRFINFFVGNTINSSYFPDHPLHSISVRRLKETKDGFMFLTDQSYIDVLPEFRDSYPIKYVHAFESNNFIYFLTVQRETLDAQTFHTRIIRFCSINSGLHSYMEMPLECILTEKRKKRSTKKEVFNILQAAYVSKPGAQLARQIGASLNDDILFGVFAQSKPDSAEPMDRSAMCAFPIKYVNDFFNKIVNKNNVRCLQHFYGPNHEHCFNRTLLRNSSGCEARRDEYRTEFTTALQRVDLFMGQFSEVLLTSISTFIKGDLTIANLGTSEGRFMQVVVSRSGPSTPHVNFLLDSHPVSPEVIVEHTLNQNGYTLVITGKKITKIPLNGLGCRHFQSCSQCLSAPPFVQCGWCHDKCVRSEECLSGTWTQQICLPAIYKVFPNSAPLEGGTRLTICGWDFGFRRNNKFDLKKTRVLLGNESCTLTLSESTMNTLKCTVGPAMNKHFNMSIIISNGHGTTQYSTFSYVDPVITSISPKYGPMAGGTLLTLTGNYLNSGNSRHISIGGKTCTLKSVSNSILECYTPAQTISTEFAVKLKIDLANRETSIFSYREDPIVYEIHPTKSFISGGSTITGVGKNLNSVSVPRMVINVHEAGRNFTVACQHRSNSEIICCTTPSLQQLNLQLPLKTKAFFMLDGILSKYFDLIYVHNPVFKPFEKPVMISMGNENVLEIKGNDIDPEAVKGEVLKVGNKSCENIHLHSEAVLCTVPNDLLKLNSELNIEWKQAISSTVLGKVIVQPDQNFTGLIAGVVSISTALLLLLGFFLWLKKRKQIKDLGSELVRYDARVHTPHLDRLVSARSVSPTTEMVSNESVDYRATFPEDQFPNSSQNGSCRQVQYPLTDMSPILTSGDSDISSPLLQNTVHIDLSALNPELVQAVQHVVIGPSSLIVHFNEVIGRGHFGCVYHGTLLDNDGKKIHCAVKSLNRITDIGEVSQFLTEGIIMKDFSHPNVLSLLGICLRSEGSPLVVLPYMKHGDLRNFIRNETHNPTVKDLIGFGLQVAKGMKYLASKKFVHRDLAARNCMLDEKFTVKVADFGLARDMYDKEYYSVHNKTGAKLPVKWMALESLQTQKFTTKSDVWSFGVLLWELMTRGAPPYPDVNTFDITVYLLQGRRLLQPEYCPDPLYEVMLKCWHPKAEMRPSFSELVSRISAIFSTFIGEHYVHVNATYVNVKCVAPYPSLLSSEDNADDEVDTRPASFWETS
# Serine/threonine-protein kinase Chk1 (Homo sapiens), sequence (O14757 whole entry): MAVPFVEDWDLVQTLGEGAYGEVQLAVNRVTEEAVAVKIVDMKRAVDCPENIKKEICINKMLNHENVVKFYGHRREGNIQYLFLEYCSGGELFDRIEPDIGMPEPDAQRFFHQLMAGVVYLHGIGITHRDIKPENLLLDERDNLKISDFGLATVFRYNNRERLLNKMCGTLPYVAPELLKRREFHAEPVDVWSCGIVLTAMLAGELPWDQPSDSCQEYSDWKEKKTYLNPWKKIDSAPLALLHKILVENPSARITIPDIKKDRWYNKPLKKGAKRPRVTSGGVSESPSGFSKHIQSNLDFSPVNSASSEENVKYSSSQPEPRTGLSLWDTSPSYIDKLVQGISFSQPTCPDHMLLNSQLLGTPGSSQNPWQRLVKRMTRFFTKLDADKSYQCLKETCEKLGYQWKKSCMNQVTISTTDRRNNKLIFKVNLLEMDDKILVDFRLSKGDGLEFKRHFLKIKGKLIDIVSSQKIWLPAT
# Tyrosine-protein kinase Lyn, sequence (P07948 2-512 limits assumed): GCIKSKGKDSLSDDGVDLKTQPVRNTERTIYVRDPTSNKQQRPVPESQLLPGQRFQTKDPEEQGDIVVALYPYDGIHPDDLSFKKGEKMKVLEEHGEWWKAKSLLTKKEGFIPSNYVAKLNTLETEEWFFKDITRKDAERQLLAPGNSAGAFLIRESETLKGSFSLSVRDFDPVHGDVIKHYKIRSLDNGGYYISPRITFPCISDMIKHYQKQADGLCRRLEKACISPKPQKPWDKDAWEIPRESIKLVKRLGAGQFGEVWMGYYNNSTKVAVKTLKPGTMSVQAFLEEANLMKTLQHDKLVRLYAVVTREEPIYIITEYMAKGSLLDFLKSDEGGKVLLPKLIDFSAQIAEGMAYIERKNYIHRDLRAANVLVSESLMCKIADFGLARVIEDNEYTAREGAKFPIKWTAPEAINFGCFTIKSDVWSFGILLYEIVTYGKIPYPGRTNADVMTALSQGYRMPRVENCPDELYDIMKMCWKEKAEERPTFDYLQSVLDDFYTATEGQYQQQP
# Serine/threonine-protein kinase Chk2, sequence (O96017 whole entry): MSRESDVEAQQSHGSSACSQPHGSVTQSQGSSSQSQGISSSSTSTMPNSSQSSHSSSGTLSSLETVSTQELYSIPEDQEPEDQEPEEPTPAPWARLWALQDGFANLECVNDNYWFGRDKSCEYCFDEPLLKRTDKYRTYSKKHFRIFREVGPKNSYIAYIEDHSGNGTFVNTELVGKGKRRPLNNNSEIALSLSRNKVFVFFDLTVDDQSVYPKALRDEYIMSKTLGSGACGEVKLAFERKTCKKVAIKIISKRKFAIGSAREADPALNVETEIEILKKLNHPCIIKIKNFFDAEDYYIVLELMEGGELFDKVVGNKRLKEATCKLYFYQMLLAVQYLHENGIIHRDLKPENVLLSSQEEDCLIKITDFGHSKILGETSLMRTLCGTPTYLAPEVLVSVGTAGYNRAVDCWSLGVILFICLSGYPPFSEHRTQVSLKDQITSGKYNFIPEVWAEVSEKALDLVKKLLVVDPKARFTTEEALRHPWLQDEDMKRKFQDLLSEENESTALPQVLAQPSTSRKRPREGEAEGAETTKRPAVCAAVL
# MAP kinase-activated protein kinase 5 (Homo sapiens), sequence (Q8IW41 whole entry): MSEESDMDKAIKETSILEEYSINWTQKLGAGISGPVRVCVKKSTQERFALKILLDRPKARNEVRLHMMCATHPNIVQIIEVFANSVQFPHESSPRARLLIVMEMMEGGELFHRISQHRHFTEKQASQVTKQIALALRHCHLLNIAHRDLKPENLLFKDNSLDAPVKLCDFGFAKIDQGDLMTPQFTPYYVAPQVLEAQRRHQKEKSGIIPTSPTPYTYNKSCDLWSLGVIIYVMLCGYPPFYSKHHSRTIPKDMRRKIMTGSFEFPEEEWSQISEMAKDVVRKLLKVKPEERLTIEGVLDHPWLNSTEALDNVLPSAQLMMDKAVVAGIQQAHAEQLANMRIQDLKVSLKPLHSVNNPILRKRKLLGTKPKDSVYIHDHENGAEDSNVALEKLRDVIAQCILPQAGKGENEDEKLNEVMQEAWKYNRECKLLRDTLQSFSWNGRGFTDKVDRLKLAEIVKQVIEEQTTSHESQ
# Glycogen synthase kinase-3 beta, sequence (P49841 whole entry, looked up): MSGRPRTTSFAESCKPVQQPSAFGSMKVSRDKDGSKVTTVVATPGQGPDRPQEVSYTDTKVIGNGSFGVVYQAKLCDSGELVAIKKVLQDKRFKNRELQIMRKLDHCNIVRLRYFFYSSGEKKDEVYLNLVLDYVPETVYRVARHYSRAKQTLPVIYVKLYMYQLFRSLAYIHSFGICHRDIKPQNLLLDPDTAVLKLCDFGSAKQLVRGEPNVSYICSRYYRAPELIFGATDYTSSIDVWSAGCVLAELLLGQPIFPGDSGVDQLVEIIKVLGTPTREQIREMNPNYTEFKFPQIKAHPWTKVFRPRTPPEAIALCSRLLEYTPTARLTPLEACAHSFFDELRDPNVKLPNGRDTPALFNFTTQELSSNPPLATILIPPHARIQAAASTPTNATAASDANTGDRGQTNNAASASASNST
# Aurora kinase A (Homo sapiens), sequence (O14965 whole entry): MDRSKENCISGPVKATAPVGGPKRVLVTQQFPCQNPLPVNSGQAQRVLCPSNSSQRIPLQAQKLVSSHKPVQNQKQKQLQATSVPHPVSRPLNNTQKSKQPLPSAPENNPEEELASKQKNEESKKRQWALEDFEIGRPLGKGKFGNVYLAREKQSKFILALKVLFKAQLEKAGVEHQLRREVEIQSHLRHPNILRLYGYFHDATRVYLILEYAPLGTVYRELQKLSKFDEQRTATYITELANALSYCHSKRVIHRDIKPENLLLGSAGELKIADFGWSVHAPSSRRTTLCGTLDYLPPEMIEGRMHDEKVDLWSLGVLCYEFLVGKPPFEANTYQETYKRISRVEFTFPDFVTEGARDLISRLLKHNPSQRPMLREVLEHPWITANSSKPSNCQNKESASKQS
# RAC-beta serine/threonine-protein kinase (Homo sapiens), sequence (P31751 whole entry): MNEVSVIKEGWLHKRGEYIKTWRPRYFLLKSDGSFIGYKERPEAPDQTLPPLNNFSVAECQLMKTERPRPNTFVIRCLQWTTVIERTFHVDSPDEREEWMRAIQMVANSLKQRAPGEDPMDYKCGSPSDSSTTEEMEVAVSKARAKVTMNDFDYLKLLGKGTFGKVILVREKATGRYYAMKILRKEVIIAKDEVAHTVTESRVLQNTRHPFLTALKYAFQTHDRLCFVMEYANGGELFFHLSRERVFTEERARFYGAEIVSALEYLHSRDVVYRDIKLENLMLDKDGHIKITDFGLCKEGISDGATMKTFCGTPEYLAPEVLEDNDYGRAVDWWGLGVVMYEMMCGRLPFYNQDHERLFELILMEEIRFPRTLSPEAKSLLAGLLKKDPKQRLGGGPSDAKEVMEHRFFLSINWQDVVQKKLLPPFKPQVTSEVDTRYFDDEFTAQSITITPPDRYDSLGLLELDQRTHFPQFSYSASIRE
structure (smiles),measurement,setting,value
C[C@H](/C=C\C(F)(F)F)Oc1cc(-c2cc(-c3cc(CN(C)C)cs3)cnc2N)ccc1C(N)=O,inhibition,[1],43%
same,inhibition,[2],32%
same,inhibition,[3],19%
same,inhibition,[4],2%
same,IC50,[5],8470 nM
same,inhibition,[6],7%
same,IC50,[7],800 nM
same,inhibition,[8],93%
same,inhibition,[9],11%
same,inhibition,[10],0%
same,IC50,[11],430 nM
same,IC50,[12],840 nM
same,inhibition,[13],46%
same,IC50,[14],1170 nM
